Assay results reported in patent US7507803B2, “Optimized multi-epitope constructs and uses thereof” (priority 2002, dated 2009).
Read-outs that look alike come from different tables or passages of the source. Ends that are not written are not given here.

Assays:
HLA supertype alleles = assay type: binding, human
HLA transgenic mice = assay: CTL priming in HLA transgenic mice after DNA immunization (in situ IFNγ ELISA or chromium release)
HLA-A2 transgenic mice = assay: IFN-γ ELISPOT CTL responses after DNA immunization; assay type: in vivo, mouse; conditions: mice immunized with GCR-5835
[1] = system: PBL from individuals with acute or chronic HBV infection; conditions: independently reported (Sobao et al. 2001); cited from earlier work
H2^bxd mice = assay: CTL response after peptide/IFA immunization, in situ ELISA; assay type: in vivo, mouse; conditions: peptide/IFA immunization of H2^bxd mice
HLA-A*0101 = HLA-A*0101 (Homo sapiens, UniProt P04439, A114D/A174V/A182V/D101N/D185E/E176A/E190D/L180R/Q94H/R68K/S129P/T187R/V100A/V91M/W191G); assay: HLA class I peptide binding assay (purified HLA, IC50)
[2] = A2, A3 or B7 supertype, five most common members
[3] = A1 or A24 supertype, three related alleles

CC[C@H](C)[C@H](NC(=O)[C@@H](NC(=O)[C@H](CC(C)C)NC(=O)[C@@H](NC(=O)[C@H](CCCNC(=N)N)NC(=O)[C@@H](NC(=O)[C@H](CC(C)C)NC(=O)[C@H](CC(C)C)NC(=O)[C@@H](N)Cc1ccccc1)[C@@H](C)O)[C@@H](C)CC)[C@@H](C)O)C(=O)O [env 183]
XRN (number of supertype alleles bound ≦500 nM) (HLA supertype alleles; [2]): 4 | Immunogenicity of the epitope in construct HBV30C (HLA transgenic mice; mouse, in vivo): poorly immunogenic

CC(C)C[C@H](NC(=O)[C@H](CO)NC(=O)[C@H](CC(C)C)NC(=O)[C@@H](N)Cc1c[nH]c2ccccc12)C(=O)N[C@@H](CC(C)C)C(=O)N[C@H](C(=O)N1CCC[C@H]1C(=O)N[C@@H](Cc1ccccc1)C(=O)N[C@H](C(=O)O)C(C)C)C(C)C [env 335]
XRN (number of supertype alleles bound ≦500 nM) (HLA supertype alleles; [2]): 4 | Primary ELISPOT response (HLA-A2 transgenic mice): approximately 100 SFC/10^6 CD8+ cells

CC(C)C[C@H](NC(=O)[C@H](CC(C)C)NC(=O)[C@H](Cc1c[nH]c2ccccc12)NC(=O)[C@@H]1CCCN1C(=O)[C@H](Cc1ccccc1)NC(=O)[C@H](CO)NC(=O)[C@@H](NC(=O)[C@H](Cc1ccc(O)cc1)NC(=O)[C@@H](N)CCCCN)[C@@H](C)O)C(=O)O [pol 745]
Recognition by CTL from HBV-infected individuals [1]: recognized by CTL from HBV-infected individuals | Murine Immunogenicity (SU) (H2^bxd mice): 158.7 SU

H-YSLNFMGY-OH [pol 580]
XRN (number of supertype alleles bound ≦500 nM) (HLA supertype alleles; [3]): 3 | IC50 (HLA-A*0101): 382 nM

LTFGRETVLEY [core 137]
XRN (number of supertype alleles bound ≦500 nM) (HLA supertype alleles; [3]): 3 | IC50 (HLA-A*0101): 80 nM

B1: HBV30K: lead 30 epitope HBV CTL vaccine epigene construct, SEQ ID NO: 71/72 (nucleic acid)
DNA: ATGGGAATGCAGGTGCAAATACAGTCTCTCTTCCTTTTGCTTCTCTGGGTTCCAGGATCACGGGGCTTCTTGCTTAGCTTGGGCATCCACCTAAATGCTGCTGCAAAATACACATCTTTTCCTTGGCTCCTTAATGCCGCCGCTAGGTTTTCATGGCTGAGTCTGCTAGTACCTTTCAATGCGGCTTTCCCACATTGCCTAGCTTTTAGCTATATGAAAGCTGCTTTAGTCGTGGACTTTTCACAGTTTAGCAGAGGAGCAATCCTGCTGCTATGTCTGATATTCCTTCTAAACGCAGCAGCCCACACACTCTGGAAAGCTGGTATCCTTTACAAGAAAGCCTGGATGATGTGGTATTGGGGACCCAGCCTCTACAAAGCATACCCTGCCCTGATGCCACTATACGCATGCATTGGCGCGGCAGCCTGGTTATCCCTTTTAGTACCGTTTGTCAACGCCGCAGCGGGATTTCTATTAACCAGAATCCTGACGATTAATGCTGCCGCCATTCCGATCCCAAGTTCCTGGGCATTCAAAGCAGCCGCGGAGTATCTGGTTTCATTTGGCGTATGGAACCTGCCAAGCGACTTCTTTCCTTCTGTTAAGGCCGCTGCTTTCCTCCCCTCCGATTTCTTTCCATCGGTGAAAGCCGCTGCCGACCTCCTTGATACCGCGAGCGCTCTGTACAACTCGTGGCCAAAATTCGCAGTTCCAAACCTAAAAGCCGCCGCCAGTGCCATTTGTTCCGTGGTAAGGAGAAAATTATCACTCGACGTGTCCGCAGCATTTTATAACGCTGCTGCAAAGTTTGTCGCAGCATGGACATTGAAGGCTGCAGCGAAAGCAGCAAATGTATCAATACCCTGGACCCACAAGGGTGCAGCCGGGCTGTCTAGGTATGTGGCGAGGCTAAACGCCGCCGCCTCAACACTGCCTGAGACTACTGTCGTGAGACGCAAACACCCTGCCGCAATGCCCCACCTGCTGAAAGCAGCCGCACGATGGATGTGCCTCAGAAGATTCATAATAAACGCTTCTTTCTGTGGGTCACCCTACAAAGCCGCTTACATGGACGATGTGGTCCTCGGAGTGAATGCCCTCTGGTTCCATATCAGCTGCCTGACATTCAAGGCAGCCGCCACCCCCGCTCGTGTGACAGGAGGTGTCTTCAAAGCCGCGGCACTGACTTTCGGTCGGGAAACTGTATTGGAATATAAGCAGGCCTTCACATTCTCCCCAACATACAAGTGA
modifications: Hepatitis B Virus
CTL responses induced by the construct (in words) (HLA transgenic mice; HLA transgenic mice (HLA-A2, -A3/A11; H2^bxd for A24)): CTL responses as vigorous as HBV2
